Results on one compound are retold here after patent publication US12485117B2, “Compositions and methods for activating signaling through the CB1 cannabinoid receptor for treating and preventing diseases and disorders characterized by abnormal cellular accumulation of sphingolipids such as sphingomyelin” (Wylder Nation Foundation, priority 2018, dated 2025).

For data set [1] the following is noted: cited from earlier work.
Another data set relates to anandamide levels. Put plainly: Anandamide levels by mass spectrometry in the hippocampus. The data set is classed as in vivo, mouse. The following applies: 0.3 mg/kg every three days. How it is done:
FIGS. 18A-18B show hippocampal anandamide and CB1 levels in wt and ASMko mice treated or not treated with PF-04457845. […] Graphs show mean±SEM CB1 intensity in arbitrary units (n=5, *p<0.05).
(§1) Treatment started at 7 weeks of age and continued for 8 weeks. PF-04457845 was dissolved in 0.9% NaCl and delivered through oral gavage at a dose of 0.3 mg/kg every three days. We chose this dose based on the studies published by Ahn et al., (J Pharm Exp Ther 2011). Control groups received same volume of 0.9% NaCl without PF-04457845.
PF-04457845 inhibits the enzyme (FAAH) that hydrolyzes the endocannabinoid anandamide, which in turn activates the CB1 receptor leading to neutral sphingomyelinase activation and sphingomyelin hydrolysis. To determine the effects of PF-04457845 treatment in the endocannabinoid system we analyzed anandamide and CB1 levels in the brain of PF-04457845 treated and non-treated mice.

Another data set concerns wt or ASMko mice. Put plainly: Acute toxicity: in-life observations for 48 hours after a single oral dose. The format is in vivo, mouse. Particulars: 48 hours after single oral dose, any of the doses (0.1, 1, 5 mg/kg). How it is done: To that end, a toxicity assessment of oral PF-04457845 treatment in AMSko mice was performed to determine the toxicity in liver and brain of single doses of PF-04457845 administered by oral gavage at different concentration.
(§2) We divided wt and ASMko mice of 4.5 months of age in six experimental groups: ASMko control (n=3), ASMko low dose (n=3), ASMko intermediate dose (n=3), ASMko high dose (n=3), wt control (n=3), wt high dose (n=3). PF-04457845, provided as powder, was dissolved in 0.9% NaCl and administered to mice through oral gavage. Vehicle groups received same volume of 0.9% NaCl.
Doses have been calculated taking into account that used in the study conducted in healthy humans (Li et al., Br J Clin Pharmacol 2011, 73:706-716). […] Estimating an average weight of 60 kg for an adult human the daily dose equals to 0.0083 mg/kg. This dose was very similar to that used in our first 8 week-long treatment with PF-04457845 in ASMko mice, which according to the formulas to calculate equivalence between humans and mice (Nair and Jacob J Basic Clin Pharma 2016, 7:27-31) corresponded to a daily HED dose of 0.0072 mg/kg. For this toxicity study we agreed to take into account the human dose: 0.0083 mg/kg. Formula conversion to mouse dose: HED (mg/kg)=Mouse dose (mg/kg)×mouseKm/Human Km).

Data set [2] deals with wt and ASMko mice. Put plainly: Acute toxicity: SM and ceramide levels in blood. The data set is classed as in vivo, mouse. How it is done: as §2
After these 48 hours and immediately before termination we collected blood from mice and prepared serum by leaving blood samples 30 minutes for clotting at room temperature and by collecting the supernatant after centrifugation at 6000 rpm for 10 minutes. Following termination, mice were transcardially perfused with phosphate-buffered saline (PBS).
SM and ceramide levels were also monitored in the blood of wt and ASMko mice with and without PF-04457845 treatment as a readout of acute toxicity.

A further data set concerns macrophages. Put plainly: Acute toxicity: liver inflammation by F4/80 immunofluorescence (macrophage cell area). The data set is classed as in vivo, mouse. The following applies: ASMko mice. As for the experimental part:
as §2
Inflammation was analyzed in the liver by immunofluorescence against the macrophage marker F4/80. Under inflammatory conditions macrophages acquire an amoeboid shape indicative of maximal activation.

The test system of data set [3] is wt and ASMko mice. In words: Elevated Plus Maze test. The format is in vivo, mouse. The following applies: 0.3 mg/kg every three days. How it is done:
(§3) FIGS. 13A-13C show the effect of PF-04457845 treatment on various behavioral functions. […] (n=14; **p<0.01, *p<0.05).
as §1
(§4) Mood alterations were monitored by the Tail Suspension Test (FIG. 13B) and by the Elevated Plus Maze test (FIG. 13C) that give an idea of depressive state and anxiety, respectively. […] PF-04457845 treatment had no effect in the behavior of wt mice.

The test system of data set [4] is wt and ASMko mice. Put plainly: Accelerating Rotarod (motor abilities). The data set is classed as in vivo, mouse. Particulars: 0.3 mg/kg every three days. As for the experimental part:
as §1
Cerebellar dependent motor abilities were monitored in an accelerating Rotarod (FIG. 12) on which the mice were trained for two days at a constant speed: the first day four times at 4 rpm for 1 min and the second day four times at 8 rpm for 1 min. On the third day, the Rotarod was set to progressively accelerate from 4 to 40 rpm for 5 min and the mice were tested four times. During the accelerating trials, the latency to fall from the rod was measured. Non-treated ASMko mice spent less time on the rod in the four trials than wt mice, indicative of impaired motor abilities.
Background: Falling from the rotarod earlier than controls is read as motor impairment.

Another data set has as its system Purkinje cells. Put plainly: Lysosomal size by Lamp1 staining of Purkinje cells. Particulars: ASMko mice, 0.3 mg/kg every three days. The format is in vivo, mouse. How it is done:
FIGS. 15A-15D show representative images of Purkinje cells from wildtype and ASMko mice treated or not treated with PF-04457845.
as §1
Purkinje cell death was analyzed by Calbindin1 staining in the cerebellum of wt and ASMko treated or not with PF-04457845 (FIG. 15A). Loss of Purkinje cells was prominent in non-treated ASMko mice compared to wt. […] PF-04457845 treatment had no effect on Purkinje cell survival in wt mice. We also analyzed Lysosomal size by staining Purkinje cells of the cerebellum for Lamp1 expression in samples from wt and ASMko mice treated or not treated with PF-04457845 (FIG. 15B). Lysosomal size was increased by an average 45% in the non-treated ASMko compared to wt mice consistent with sphingomyelin accumulation in these organelles. This alteration was prevented to a significant extent (35%) in the ASMko mice treated with PF.

In data set [5] the test system is wt and ASMko mice. Put plainly: Weekly body weight during 8-week oral treatment. Particulars: 0.3 mg/kg oral gavage every three days, 8 weeks. The data set is classed as in vivo, mouse. As for the experimental part:
We divided wt and ASMko into four groups: wt, wt+FAAHi, ASMko, ASMko+FAAHi. Each group included 14 animals with females and males in equal proportions.
as §1
Behavioral analyses were performed in the last 2 weeks of treatment while still administering the drug. Then, half of the mice were sacrificed for biochemical and histological analysis and the other half continued receiving the treatment to monitor life span.

The test system of data set [6] is wt and ASMko mice. Put plainly: Tail Suspension Test. The format is in vivo, mouse. The following applies: 0.3 mg/kg every three days. How it is done: as §3, §1, §4

The structures appear in SMILES notation.

As for `O=C(Nc1cccnn1)N1CCC(=Cc2cccc(Oc3ccc(C(F)(F)F)cn3)c2)CC1` [PF-04457845], the “doses that seem to be safe in rodents” value in data set [1] (Ahn et al., 2011) was “up to 10 mg/kg”. Further, the selectivity result in [1] (Ahn et al., J Pharm Exp Ther 2011) is listed as “exceptional selectivity”. For the same compound, the “duration of action in vivo” value in data set [1] (rodents, Ahn et al. 2011) was “long duration of action”. The pharmacokinetic properties entry in [1] (rodents, Ahn et al. 2011) is on record as “optimal pharmacokinetic properties”. Moreover, the “increase of anandamide levels in the hippocampus” value is given as 1.96 fold in the data set with anandamide levels (ASMko mice) and 2.09 fold in the data set with anandamide levels (wt mice). The “adverse effects (abnormal behavior, weight loss, motor anomalies, skin alterations)” value with wt or ASMko mice was “No evident adverse effects”. The “SM levels in blood” value with wt and ASMko mice [2] (ASMko mice, single doses 0.1, 1, 5 mg/kg (data not shown)) is reported as “moderate dose-dependent decrease”. For the same compound, the “ceramide levels in blood” value is reported as “high variability with a tendency to increase” in the data set on wt and ASMko mice [2] (single dose of 0.1 mg/kg (data not shown)); “decreased” in the data set with wt and ASMko mice [2] (single dose of 1 mg/kg (data not shown)); “decreased” in the data set on wt and ASMko mice [2] (single dose of 5 mg/kg (data not shown)). In addition, the “liver macrophage amoeboid morphology / cell area” value in the data set with macrophages (single dose 0.1 mg/kg) was “did not significantly alter macrophage amoeboid morphology”. Further, the “liver macrophage cell area” value with macrophages (single dose 1 mg/kg) and in the data set on macrophages (single dose 5 mg/kg) was “remarkably reduced macrophage cell area to levels similar to wt mice” each time. The “behavior in Elevated Plus Maze test (anxiety)” value with wt and ASMko mice [3] (ASMko mice) is “normalized”. Besides, the “behavior in Elevated Plus Maze test” value in the data set on wt and ASMko mice [3] (wt mice) was “no effect”. For the same compound, the “time on the rod (Rotarod)” value in the data set on wt and ASMko mice [4] (ASMko mice, second, third and fourth trials) is listed as “significantly improved the time on the rod”. For the same compound, the “time on the rod (Rotarod), treated versus non-treated” value in the data set with wt and ASMko mice [4] (wt mice) is given as “No differences”. Moreover, in the data set on Purkinje cells, the “increase of lysosomal size prevented (Lamp1)” value was 35%. Besides, the body weight gain result in the data set on wt and ASMko mice [5] (ASMko mice) is on record as “significantly improved”; in the data set with wt and ASMko mice [5] (wt mice) it was “not affected”. For the same compound, the “behavior in Tail Suspension Test (depressive state)” value in the data set on wt and ASMko mice [6] (ASMko mice) is recorded as “normalized”. Further, in the data set on wt and ASMko mice [6] (wt mice), the “behavior in Tail Suspension Test” value is reported as “no effect”.
